Measurements published in patent US10668102B2, “Lineage differentiation of encapsulated embryonic stem cells” (Rutgers, The State University of New Jersey, priority 2010, dated 2020).

Tests used:
[1] = tested on: encapsulated ES cells; assay: Three dimensional alginate poly-L-lysine encapsulated oligodendrocyte differentiation, immunofluorescence; type: cell-based, mouse; details: for O1 expression / CNPase expression / MBP expression: IMDM + RA 8 days then PPAR agonist; for CNPase expression: peak
Experimental: The alginate encapsulation process was done using the protocol setup by Maguire, T., et al., Biotechnol. Bioeng., 93(3):581-91(2006). Briefly, an alginate solution was generated by dissolving 2.2 g of alginate (Sigma-Aldrich, MW: 100,000-200,000 g/mol, GContent: 65%-70%) in 100 mL of Ca^2+ free DMEM, using a heated magnetic stir plate at a temperature of 45° C. The solution was then filtered using a 25-micron syringe filter (Fisher Brand, Pittsburgh, Pa.). A confluent monolayer of undifferentiated ES cells were removed following trypsin incubation, centrifuged for 10 min at 1,000 rpm, and resuspended in PBS. The cells were washed twice more with PBS, resuspended in 2 mL of their respective media (IMDM, IMDM+Retinoic Acid (RA) (1×10^−7M), DMEM/F12+N2) and both cell number and viability assessed using the method of trypan blue (Gibco) exclusion. To create the cell-alginate mixture, 1 mL of cell suspension with a density of 50×10^6 cells/mL was added to 9 mL of a 2.2% (w/v) alginate solution to yield a final cell density of 5×10^6 cells/mL and a final alginate concentration of 2.0% (w/v). This solution was transferred to a 10 mL syringe (BD Biosciences), which, in turn was connected to a syringe pump (KD Scientific, Holliston, Mass.). Alginate beads were generated using an electrostatic bead generator (Nisco, Zurich, Switzerland) at a flow rate of 40 mL/h, and an applied voltage of 6.5 kV, resulting in beads with a diameter of 500 μm. The beads were collected in a 200 mL bath of CaCl2 (100 mM) (Sigma-Aldrich), containing 145 mM NaCl (Sigma-Aldrich), and 10 mM MOPS (Sigma-Aldrich) and were left to polymerize for 10 minutes at room temperature. Beads were transferred to a tissue culture treated 1-25 flask (Falcon, BD Biosciences), following the polymerization step. The CaCl2 solution was removed using a 5 mL pipette, and the beads were washed with 5 mL of HEPES (Gibco). The HEPES was removed and the beads were re-suspended in 5 mL of poly-L-lysine (PLL) (Sigma-Aldrich, MW: 68,600 g/mol) (0.05% w/v) for 2 min. The PLL was then gently removed, replaced with HEPES to wash the beads and the beads were ultimately re-suspended in 5 mL of cell culture media. Media was changed every 4 days post-encapsulation. In all experimental conditions, monolayer culture configurations were used as controls.
Cells were fixed for immunofluorescence analysis on Days 8, 14, 18 and 22.
Cells were fixed before doing any immunofluorescence.
Specimens were excited using a 488 nm filter.

[2] = tested on: ESD3 cells; details: for cell morphology / CNPase expression over time / O1 expression over time: 2D; for cell morphology: Day 30, after 14 days of agonist exposure; for CNPase expression over time / O1 expression over time: agonist from Day 16 to Day 30
From the text: In order to induce differentiation, cells were replated into gelatin coated 6 well plates (Biocoat, BD-Biosciences, Bedford, Mass.) at a density of 1×10^4 cells/cm^2. Cells were placed in DMEM/F12 (Invitrogen, Carlsbad, Calif.) media supplemented with 1% N-2 (Invitrogen—contains human transferrin, insulin, progesterone, putrescine and selenite), 100 U/mL penicillin and 100 U/mL streptomycin for 8 days. Every 2 days, media was aspirated and replaced with fresh media. On day 8, the cells were replated at a density of 0.5×10^4 cells/cm^2 into 24 well plates (Falcon, BD Biosciences, San Jose, Calif.) that were precoated with 0.1% Gelatin (Sigma-Aldrich) for 1 hour at 37° C. To aid in cell attachment, 10 ng/ml basic fibroblast growth factor (bFGF) was added. From day 8 to day 16, 1% Fetal Bovine Serum (FBS-Invitrogen) is added. Every 2 days, media was aspirated and replaced with fresh media.
On day 16, the cells are replated at a density of 0.5×10^4 cells/cm^2 into the same differentiation media supplemented with either 10 μM PPAR alpha (Sigma-Aldrich: WY-14643), 1 μM PPAR delta (Sigma-Aldrich: GW0742), or 10 μM PPAR gamma (Sigma-Aldrich: GW1929). All three agonists were dissolved in 0.05% DMSO (Sigma-Aldrich). Every 2 days, media was aspirated and replaced with fresh media with agonists. Cells were fixed for immunofluorescence analysis on Days 22, 26 and 30.
Cells were fixed before doing any immunofluorescence. This was done by first washing the cells 3 times in Tris Buffered Saline (TBS) followed by incubating the cells in 4% paraformaldehyde (Sigma-Aldrich) for 15 minutes at room temperature. The cells were again washed 3 times in TBS for 5 minutes at room temperature). In order to reduce non-specific binding of the antibodies to proteins on/within the cells, they were first blocked for 45 minutes at room temperature by incubating the cells with TBS, 10% goat serum (Invitrogen), 1% Bovine Serum Albumin (BSA-Sigma) and depending on if the protein in question is intracellular, 0.1% Triton X-100. The cells were then incubated overnight at 4° C. with the respective primary antibody in TBS, 1% goat serum and if the protein in question was intracellular, 0.1% Triton X-100. The antibodies used were: 5 μg/ml mouse anti-A2B5 IgM (Chemicon), 2 μg/ml mouse anti-O1 IgM (R&D Systems, Minneapolis, Minn.), 12.6 μg/ml mouse anti-CNPase (2′, 3′-cyclic nucleotide 3′-phosphodiesterase) IgG1 (Sigma) and 8 μg/ml rabbit anti-Myelin Basic Protein IgG (MBP—abcam, Cambridge, Mass.). To account for non-specific binding, isotype controls were used for each antibody: for A2B5 and O1—mouse IgM (Chemicon), for CNPase—mouse IgG1 (BD Biosciences) and for MBP—rabbit IgG (Invitrogen). The cells were washed 3 times for 5 minutes in TBS and if the protein in question was intracellular, 0.1% […]. The cells were then incubated for 1 hour at room temperature with the respective secondary in TBS and if the protein in question is intracellular, 0.1% Triton X-100. The secondaries used were: for A2B5 and O1—Alexa Fluor 488 goat anti-mouse IgM (Invitrogen—1:500), CNPase—Alexa Fluor 488 goat anti-mouse IgG1 (Invitrogen—1:500) and MBP—Alexa Fluor 488 goat anti-rabbit IgG (Invitrogen—1:500). The cells were then washed 2 times in TBS for 5 minutes at room temperature. The cells were counterstained with Hoechst 33342 (Invitrogen) for 10 minutes at room temperature (1 μg/ml).
Fluorescent images were acquired using a computer interfaced inverted Olympus IX70 microscope. Specimens were excited using a 488 nm filter. Fluorescent intensity values were determined for each cell using Olympus Microsuite™ software. Experimental intensity values for each cell were calculated after subtracting the average intensity of the isotype control.

[3] = tested on: ESD3 cells; assay: Oil Red O staining of monolayer ESD3 cells; type: cell-based, mouse; details: 2D, by Day 30
Experimental: After the cells were fixed using 4% paraformaldehyde, they were then washed twice with PBS and rinsed once with 60% isopropanol (Sigma) for 5 minutes. A 0.18% Oil Red O (Sigma) solution in diH2O was then added to the cells for 10 minutes (diluted down from a 0.3% stock solution of Oil Red O in 99% isopropanol and filtered through filter paper). The cells were then rinsed several times with PBS (30 second rinses) until all excess Oil Red O was removed. […] Images were taken using an Olympus CKX-41 microscope with an Olympus Magnafire Color Camera and Magnafire software v.2.1C.
Oil Red O is a fat-soluble dye used for the staining of neutral triglycerides and lipids and among other things is used to detect myelin and myelin degradation products (Boven, L. A., et al., Brain, 129(Pt 2):517-526 (2006); Zou, T., et al., J. Neuropathol. Exp. Neurol., 65(1):78-86 (2006)).

[4] = tested on: encapsulated ES cells; assay: Intracapsular immunofluorescence of neural lineage markers and albumin in encapsulated ES cells; type: cell-based, mouse; details: 2.2% alginate, 10^-7 M retinoic acid
Experimental: Alginate solution was prepared by dissolving 2.2 g of alginic acid sodium salt (MW: 100,000-200,000 g/mol, G Content: 65%-70%, Sigma-Aldrich) in 100 mL of Ca^2+ free DMEM (Gibco), using a heated magnetic stir plate at a temperature of 65° C. The solution was then filtered using a 45 μm syringe filter (Fisher Scientific, Pittsburgh, Pa.). To create the cell-alginate mixture, 1 mL aliquot of cell suspension with a seeding density of 5×10^7 cells/mL was added to 9 mL of either 1.2%, 1.7%, 2.2% or 2.5% (w/v) alginate solution to yield a final cell seeding density of 5×10^6 cells/mL. This solution was transferred to a 10 mL syringe, and was connected to a syringe pump (KD Scientific, MA). Alginate beads were generated using an electrostatic bead generator (Nisco, Zurich, Switzerland) at a flow rate of 40 mL/h, and an applied voltage of 6.4 kV. The beads were extruded into a 200 mL bath of CaCl2 (100 mM), containing 145 mM NaCl, and 10 mM MOPS (all from Sigma-Aldrich) and were left to polymerize for 10 min at room temperature (Maguire, T., et al., Biotechnol. Bioeng., 93(3):581-591 (2006)). Beads were then transferred to a tissue culture treated T-25 flask. The CaCl2 solution was removed using a 5 mL pipette, and the beads were washed with 5 mL of HEPES (Gibco). The HEPES was removed and the beads were resuspended in 5 mL of poly-L-lysine (PLL) (Sigma-Aldrich, MW 68,600 g/mol) (0.05% w/v) for 2 min. The PLL was then gently removed, replaced with HEPES to wash the beads and the beads were ultimately resuspended into 5 mL of IMDM medium (Invitrogen, Carlsbad, Calif.) media with and without 10^−7M trans-retinoic acid (Bain, G., et al., Dev. Biol., 168(2):342-357 (1995)). Media was changed at days 4, 8, 12, 16 and 20 post-encapsulation.
To assess the effect of RA on lineage commitment within the alginate microenvironment, individual cells were examined within the encapsulated population using indirect immunofluorescence analysis with a panel of neural lineage specific antibodies, including neurofilament 160 kD (neuronal marker), O1 (oligodendrocyte marker) and GFAP (astrocyte marker). Specific antibody binding was assessed relative to a non-specific immunoglobulin control.
After assessing the neural specific markers, the inventors also investigated the effects of different alginate concentrations, e.g., 1.2%, 1.7% and 2.5%, on neural differentiation in the alginate encapsulation microenvironment.
Encapsulated cells were washed with PBS (Gibco) and fixed on days 4, 8, 12, 16 and 20 with 4% paraformaldehyde to evaluate surface proteins or together with 0.25% Triton-X to evaluate intracellular protein expression. […]

[5] = tested on: encapsulated ES cells; assay: Three dimensional alginate poly-L-lysine encapsulated oligodendrocyte differentiation, immunofluorescence; type: cell-based, mouse; details: 3D encapsulated, IMDM with Retinoic Acid, Day 12
[6] = tested on: encapsulated ES cells; assay: Intracapsular aggregate size of encapsulated ES cells; type: cell-based, mouse; details: in the presence of retinoic acid, entire differentiation period
Experimental: Bright field images were acquired using an Olympus IX70 microscope and an Olympus digital camera. For each microcapsule, 5 z-sectional images were taken at 50 μm intervals to avoid multiple quantification of the same aggregate, for a total depth of 250 μm. Image quantification was conducted using Olympus Microsuite imaging analysis software.

[7] = tested on: ES cell line D3; assay: Cell number and viability of alginate-encapsulated ES cells (trypan blue after depolymerization); type: cell-based, mouse; details: 2.2% w/v alginate, 5×10^6 cells/mL, with RA
Experimental: All cell cultures were incubated in a humidified 37° C., 5% CO2 environment. The ES cell line D3 (ATCC, Manassas, Va.) was maintained in an undifferentiated state in T-75 gelatin-coated flasks (Biocoat, BD-Biosciences, Bedford, Mass.) in Knockout Dulbecco's modified Eagles medium (Gibco, Grand Island, N.Y.) containing 15% knockout serum (Gibco), 4 mM L-glutamine (Gibco), 100 U/ml penicillin (Gibco), 100 U/ml streptomycin (Gibco), 10 mg/ml gentamicin (Gibco), 1,000 U/ml ESGRO™ (Chemicon, Temecula, Calif.) and 0.1 mM 2-mercaptoethanol (Sigma-Aldrich, St. Louis, Mo.). Media was changed every two days until plates were confluent. ES cultures were split and passaged every 6 days. Following media aspiration, cells were washed with 10 mL of phosphate buffered solution (PBS) (Gibco), detached using 3 mL of trypsin EDTA (Gibco) for 3 minutes, and subsequently 12 mL of Knockout DMEM was added. Cells were then replated in gelatin-coated T-75 flasks at a density of 1 million cells/mL and only passages 10 through 25 were used in the experiments. In order to induce differentiation, cells were cultured in Iscove's modified Dulbecco's medium (Gibco) containing 20% fetal bovine serum (Gibco), 4 mM L-glutamine (Gibco), 100 U/ml penicillin (Gibco), 100 U/ml streptomycin (Gibco), 10 mg/ml gentamicin (Gibco) in the presence or absence of 10^−7M trans-retinoic acid (Sigma-Aldrich). […]

Cc1cccc(Nc2cc(Cl)nc(SCC(=O)O)n2)c1C [PPAR alpha, WY-14643]
MBP expression over time ([1]; 3D, IMDM + RA 8 days then PPAR agonist for 14 days): stays pretty constant over the time period
O1 expression ([1]; 3D, day 18): ~35%
O1 expression ([1]; 3D, day 22): ~15%
CNPase expression ([1]; 3D, day 22): about 60%
cell morphology [2]: majority of cells have extended processes with some having secondary branching
CNPase expression over time [2]: increases over the initial 6 days and stabilizes for the remaining 8 days
O1 expression over time [2]: drops consistently over the 14 day period
Oil Red O stain compared to control [3]: minimal effect compared to control

CC1=C(/C=C/C(C)=C/C=C/C(C)=C/C(=O)O)C(C)(C)CCC1 [retinoic acid, trans-retinoic acid]
A2B5 expression (highest, as stated in text) ([1]; 3D encapsulated, exposure to RA for 16 days): 44%
encapsulated cells stained positively for intracellular albumin [4]: less than 5%
maximum percentage of encapsulated cells positively stained for GFAP [4]: 38.6%
maximum percentage of encapsulated cells positively stained for NF 150 kD [4]: 41.9%
maximum percentage of encapsulated cells positively stained for O1 [4]: 32.3%
CNPase expression [5]: 32%
O1 expression [5]: 32%
size of individual cells [6]: approximately 13 μm
final density relative to the initial seeding density ([7]; 20-day culture): 2.5 times
Cell viability ([7]; throughout the culture period): greater than 95%

Cc1cc(SCc2sc(-c3ccc(C(F)(F)F)c(F)c3)nc2C)ccc1OCC(=O)O [PPAR delta, GW0742]
differentiation at various concentrations ([1]; 3D, 0.1 μM, 1 μM and 10 μM): No significant differences
MBP expression ([1]; 3D, day 22): ~80%
CNPase expression ([1]; 3D, day 22): about 40%
cell morphology [2]: majority of cells have extended processes with some having secondary branching
CNPase expression over time [2]: gradually increases over the 14 day period
O1 expression over time [2]: drops sharply over the last 8 days
Oil Red O stain compared to control [3]: significantly higher than control

CN(CCOc1ccc(C[C@H](Nc2ccccc2C(=O)c2ccccc2)C(=O)O)cc1)c1ccccn1 [PPAR gamma, GW1929]
O1 expression ([1]; 3D, day 14): about 42%
MBP expression ([1]; 3D, day 18): about 74%
MBP expression ([1]; 3D, day 22): about 45%
O1 expression ([1]; 3D, day 22): about 22%
CNPase expression ([1]; 3D, day 22): ~53%
cell death compared to all other cases [2]: significant increase in cell death
cell morphology [2]: two distinct morphologies
CNPase expression over time [2]: large increase over the initial 10 days thereafter stabilizing
O1 expression over time [2]: gradually tapers over the 14 day period
Oil Red O stain compared to control [3]: significantly higher than control
